In paper PMC6009873, “Discovery of novel dual inhibitors of receptor tyrosine kinases EGFR and PDGFR-β related to anticancer drug resistance” (Journal of Enzyme Inhibition and Medicinal Chemistry, 2017):

Legend:
[1] = tested on: EKV X non-small cell lung cancer cell line; assay: Cellular growth inhibition assay (NCI, SRB staining); assay type: cell-based; settings: Homo sapiens, EKVX, 48 h, read-out: Compound growth inhibition
Method: (§1) Cells were inoculated into 96 well microtiter plates in […] at plate densities ranging from 5000 to 40.000 cells per well depending from the individual cell doubling time. Then the cell- containing plates were incubated at 37 °C under an air atmosphere containing 5% of carbon dioxide and with a relative humidity for 24 h. After that time two plates of each cell line were fixed in situ with TCA as control before drug addition. Then the drug containing dmso stock solutions were used and mixed with the cell culture medium containing […] of gentamicin. Aliquots of […] of the respective dilution were added to the preincubated plates reaching a final drug concentration of 10 µM. The plates were incubated again under the preincubation conditions as described for 48 h. Then cells were fixed under addition of 50 ml of a cold 50% solution of TCA reaching a final concentration of 10% TCA. Incubation continued for 60 min at 4 °C. The supernatant was discarded and the plates were washed with water for five times and dried at air. Then a sulforhodamine (SRB) solution (0.4%) in acetic acid (1%) was added to each well and plates were incubated again for 10 min. The unbound dye was removed by washing for five times with an acetic acid solution (1%) and the plates were dried at air. The bound stain was solubilised with a […] solution of trizma base and the absorbance was measured with a plate reader at a wavelength of 515 nm. The growth inhibition measured as lowered net protein increase after SRB staining was determined in relation to the untreated control cells (Table 2).
(§2) In first screening studies carried out with an initial concentration of 10 µM by the National Cancer Institute of Health (NCI) the growth inhibition of respective non-small cell lung cancer (NSCLC) cell lines and of prostate cancer cell lines was determined.

[2] = tested on: PC-3 prostate cancer cell line; assay: as above; assay type: cell-based; settings: Homo sapiens; PC-3, 10 µM, 48 h; read-out: Compound growth inhibition
Method: as §1, §2

[3] = tested on: NCI-H23 non-small cell lung cancer cell line; assay: as above; assay type: cell-based; settings: Homo sapiens; NCI-H23, 10 µM, 48 h; read-out: Compound growth inhibition
Method: as §1, §2

[4] = tested on: DU-145 prostate cancer cell line; assay: as above; assay type: cell-based; settings: Homo sapiens; DU-145, 10 µM, 48 h; read-out: Compound growth inhibition
Method: as §1, §2

[5] = tested on: NCI-H322M non-small cell lung cancer cell line; assay: as above; assay type: cell-based; settings: Homo sapiens, 48 h, read-out: Compound growth inhibition
Method: as §1, §2

[6] = molecular target: T1, PDGFR-β (Homo sapiens, UniProt P09619); assay: Receptor tyrosine kinase inhibition, [γ-33P]-ATP competition FlashPlate assay; assay type: biochemical; settings: for Ki values PDGFR-β / Ki: Ki determined from IC50, competitive binding mode, 15 µM ATP, Km ATP 0.989 µM, n.a. = not active
T1 construct: GST; made in house; host or cells: Sf9 insect cells (baculovirus)
Method: (§3) The protein kinases were expressed by means of the baculovirus expression system in Sf9 insect cells as human recombinant GST fusion proteins and purified by affinity chromatography using GSH-agarose. The kinase identity was confirmed by mass spectrometry using LC-ESI-MS/MS technique.
The measuring of protein kinase activity was performed in 96-well FlashPlates^TM from Perkin Elmer in a 50 µL reaction volume. The reaction mixture consisted of 20 µL of assay buffer solution, 5 µL of ATP solution in water, 5 µL of used test compound in a 10% dmso solution and, finally, a premixture of each 10 µL of used substrate and enzyme solutions. The assay buffer solution contained 70 mM of HEPES-NAOH pH 7.5, each 3 mM of magnesium chloride and manganese(II) chloride, 3 µM of sodium orthovanadate, 1.2 mM of DTT, 50 µg/mL of PEG20000 and finally 15 µM of [γ-^33 P]-ATP making approximately 9 × 10^5 cpm per well. The final kinase concentration has been 10 ng/50 µL for EGFR and 20 ng/50 µL for PDGFR-β. The substrate was Poly(Glu,Tyr)4:1 for EGFR and Poly(Ala, Glu, Lys, Tyr)6:2:5.1 for PDFGR-β, both used in a concentration of 125 ng/50 µL. The reaction mixtures were incubated at 30 °C for 60 min. The reaction was stopped with 50 µL of a 2% (v/v) solution of phosphoric acid. Then the plates were aspirated and washed twice with 200 µL of water and a 0.9% solution of sodium chloride. The incorporation of ^33 P was determined with a microplate scintillation counter. Ten different inhibitor concentrations were measured in a range of 3 nM to 100 µM. The residual activity (%) and the IC50 values were finally calculated. From the IC50 values the affinity constants Ki were determined using the equation: IC50 =1/2 [Etotal]+Ki × (1 + [S]/Km) following a competitive inhibitor binding mode[19] (Table 1). The used Km values for ATP have been measured with 1.3 µM for EGFR and with 0.989 µM for PDGFR-β.

[7] = tested on: NSCLC cell lines; assay: Cellular growth inhibition assay (NCI, SRB staining), span over the cell lines; assay type: cell-based; settings: Homo sapiens, span over EKV X, NCI-H23, NCI-H322M, read-out: growth inhibition rates in the NSCLC cell lines
Method: as §1, §2

[8] = molecular target: T2, EGFR (Homo sapiens, UniProt P00533); assay: Receptor tyrosine kinase inhibition, [γ-33P]-ATP competition FlashPlate assay; assay type: biochemical; settings: Ki determined from IC50, competitive binding mode, 15 µM ATP, Km ATP 1.3 µM; n.a. = not active
T2 construct: GST; made in house; host or cells: Sf9 insect cells (baculovirus)
Method: as §3
The measuring of protein kinase activity was performed in 96-well FlashPlates^TM from Perkin Elmer in a 50 µL reaction volume. The reaction mixture consisted of 20 µL of assay buffer solution, 5 µL of ATP solution in water, 5 µL of used test compound in a 10% dmso solution and, finally, a premixture of each 10 µL of used substrate and enzyme solutions. […] The final kinase concentration has been 10 ng/50 µL for EGFR and 20 ng/50 µL for PDGFR-β. […] The reaction mixtures were incubated at 30 °C for 60 min. The reaction was stopped with 50 µL of a 2% (v/v) solution of phosphoric acid. Then the plates were aspirated and washed twice with 200 µL of water and a 0.9% solution of sodium chloride. The incorporation of ^33 P was determined with a microplate scintillation counter. Ten different inhibitor concentrations were measured in a range of 3 nM to 100 µM. The residual activity (%) and the IC50 values were finally calculated.

[9] = tested on: prostate cancer cell lines; assay: Cellular growth inhibition assay (NCI, SRB staining), span over the cell lines; assay type: cell-based; settings: Homo sapiens; span over PC-3 and DU-145, 10 µM; read-out: growth inhibition rates in the prostate cancer cell lines
Method: as §1, §2

[10] = tested on: PC-3 prostate cancer cell line; set-up: method as in PMID 19179890, PMID 16926630; settings: PC-3, reported for comparison; cited from earlier work
[11] = tested on: DU-145 prostate cancer cell line; set-up: method as in PMID 19179890, PMID 16926630; settings: DU-145, reported for comparison; cited from earlier work
[12] = tested on: NCI-H23 non-small cell lung cancer cell line; set-up: method as in PMID 19179890, PMID 16926630; settings: NCI-H23, reported for comparison; cited from earlier work

T1 sequence (P09619 33-1106): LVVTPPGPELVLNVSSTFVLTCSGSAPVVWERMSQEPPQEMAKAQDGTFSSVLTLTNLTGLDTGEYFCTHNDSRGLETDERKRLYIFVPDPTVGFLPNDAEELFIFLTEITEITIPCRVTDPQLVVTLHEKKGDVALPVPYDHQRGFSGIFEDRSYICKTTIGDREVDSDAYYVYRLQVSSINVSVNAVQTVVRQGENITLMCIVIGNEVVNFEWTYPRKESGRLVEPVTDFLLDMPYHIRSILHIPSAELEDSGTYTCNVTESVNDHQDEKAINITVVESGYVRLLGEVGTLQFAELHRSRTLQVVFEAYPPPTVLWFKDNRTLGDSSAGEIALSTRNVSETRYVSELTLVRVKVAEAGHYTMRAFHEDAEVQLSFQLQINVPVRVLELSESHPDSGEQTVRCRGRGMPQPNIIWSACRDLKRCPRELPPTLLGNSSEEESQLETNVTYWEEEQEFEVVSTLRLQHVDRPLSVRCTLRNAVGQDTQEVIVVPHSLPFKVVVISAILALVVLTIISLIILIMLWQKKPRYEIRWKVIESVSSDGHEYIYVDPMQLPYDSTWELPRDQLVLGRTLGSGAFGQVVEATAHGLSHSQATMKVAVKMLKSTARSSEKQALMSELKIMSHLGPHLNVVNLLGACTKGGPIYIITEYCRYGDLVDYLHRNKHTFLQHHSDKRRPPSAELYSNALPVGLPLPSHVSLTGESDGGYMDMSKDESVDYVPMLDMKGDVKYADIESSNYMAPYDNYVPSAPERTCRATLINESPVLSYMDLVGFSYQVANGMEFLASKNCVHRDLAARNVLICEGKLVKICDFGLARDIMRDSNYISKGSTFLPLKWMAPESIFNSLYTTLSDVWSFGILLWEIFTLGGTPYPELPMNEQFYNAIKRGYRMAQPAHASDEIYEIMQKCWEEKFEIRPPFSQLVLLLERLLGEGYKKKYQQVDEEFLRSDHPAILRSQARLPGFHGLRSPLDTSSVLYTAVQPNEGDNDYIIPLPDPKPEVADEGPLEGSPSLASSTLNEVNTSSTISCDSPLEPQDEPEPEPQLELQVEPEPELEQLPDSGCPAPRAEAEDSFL
T2 sequence (P00533 25-1210): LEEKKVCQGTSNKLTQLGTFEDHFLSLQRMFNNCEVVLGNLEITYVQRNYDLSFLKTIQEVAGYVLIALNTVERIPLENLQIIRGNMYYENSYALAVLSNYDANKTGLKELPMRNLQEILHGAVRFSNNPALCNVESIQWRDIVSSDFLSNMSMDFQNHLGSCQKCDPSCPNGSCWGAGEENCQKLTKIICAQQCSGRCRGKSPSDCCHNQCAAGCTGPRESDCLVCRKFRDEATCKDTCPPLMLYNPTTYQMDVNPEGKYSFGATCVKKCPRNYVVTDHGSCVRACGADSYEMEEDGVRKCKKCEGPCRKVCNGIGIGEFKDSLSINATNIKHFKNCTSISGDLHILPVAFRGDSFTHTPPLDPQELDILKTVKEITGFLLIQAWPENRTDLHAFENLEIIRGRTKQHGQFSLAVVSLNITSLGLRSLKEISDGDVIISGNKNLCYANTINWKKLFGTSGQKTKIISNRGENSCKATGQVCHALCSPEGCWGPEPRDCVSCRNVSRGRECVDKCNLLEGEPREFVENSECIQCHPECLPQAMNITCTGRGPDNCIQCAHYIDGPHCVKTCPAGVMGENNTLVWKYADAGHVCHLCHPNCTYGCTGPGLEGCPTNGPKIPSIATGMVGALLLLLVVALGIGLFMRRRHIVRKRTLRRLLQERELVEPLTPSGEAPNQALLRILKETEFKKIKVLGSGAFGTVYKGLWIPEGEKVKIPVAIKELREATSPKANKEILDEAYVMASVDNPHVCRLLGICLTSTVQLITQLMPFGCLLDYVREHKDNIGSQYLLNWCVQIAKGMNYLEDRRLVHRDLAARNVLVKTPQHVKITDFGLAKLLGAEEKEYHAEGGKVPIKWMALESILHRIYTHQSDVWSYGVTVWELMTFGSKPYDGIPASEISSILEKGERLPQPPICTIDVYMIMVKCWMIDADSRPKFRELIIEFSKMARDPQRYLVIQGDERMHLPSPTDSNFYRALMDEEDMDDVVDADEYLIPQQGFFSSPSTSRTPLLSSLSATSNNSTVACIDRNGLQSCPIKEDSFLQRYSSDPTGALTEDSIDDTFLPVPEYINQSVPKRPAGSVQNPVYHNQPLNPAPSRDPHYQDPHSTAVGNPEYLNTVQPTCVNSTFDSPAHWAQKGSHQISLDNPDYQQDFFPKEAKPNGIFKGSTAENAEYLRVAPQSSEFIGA

What does the source list for `CCOc1cccc(Nc2nc(N)nc3[nH]c4ccc(O)cc4c23)c1` [Compound 5a, 2-Amino-4-((3-ethoxyphenyl)amino)-9H-pyrimido[4,5-b]indol-6-ol]?
inhibition at 10 µM [1]: 71%; inhibition at 10 µM [2]: 25%; inhibition at 10 µM [3]: 32%; inhibition at 10 µM [4]: 51%; inhibition at 10 µM [5]: 35%; Ki values PDGFR-β [6]: not active; inhibition at 10 µM [7]: 32 to 71%; Ki [8]: 181 ± 14 nM

Which Ki [6] does the source give for `CC(C)Oc1cccc(Nc2nc(N)nc3[nH]c4ccc(O)cc4c23)c1` [Compound 5b, 2-Amino-4-((3-isopropoxyphenyl)amino)-9H-pyrimido[4,5-b]indol-6-ol] here?
Its Ki is 2750 ± 184 nM.

And the “Ki values EGFR” value [8]?
The value was “lost”.

With `C#Cc1cccc(Nc2nc(N)nc3[nH]c4ccc(O)cc4c23)c1` [Compound 5c, 2-Amino-4-((3-ethinylphenyl)amino)-9H-pyrimido[4,5-b]indol-6-ol] as the molecule, how does the Ki [6] read?
Its Ki is 3530 ± 200 nM.

And the Ki [8]?
Its Ki is 149 ± 66 nM.

Which results are given for `CCOc1ccc(Nc2nc(N)nc3[nH]c4ccc(O)cc4c23)cc1` [Compound 5d, 2-Amino-4-((4-ethoxyphenyl)amino)-9H-pyrimido[4,5-b]indol-6-ol]?
Ki [6]: 1910 ± 150 nM; Ki [8]: 935 ± 84 nM

What does the source list for `CC(C)Oc1ccc(Nc2nc(N)nc3[nH]c4ccc(O)cc4c23)cc1` [Compound 5e, 2-Amino-4-((4-isopropoxyphenyl)amino)-9H-pyrimido[4,5-b]indol-6-ol]?
Ki [6]: 1940 ± 218 nM; Ki [8]: 574 ± 110 nM

With `C#Cc1ccc(Nc2nc(N)nc3[nH]c4ccc(O)cc4c23)cc1` [Compound 5f, 2-Amino-4-((4-ethinylphenyl)amino)-9H-pyrimido[4,5-b]indol-6-ol] as the molecule, how does the “Ki values PDGFR-β” value [6] read?
Its value is “not active”.

What about the Ki [8] of the same molecule?
The Ki was 421 ± 66 nM.

Which “Ki values PDGFR-β” value [6] does the source give for `Nc1nc(Nc2ccc(Cl)cc2)c2c(n1)[nH]c1ccc(O)cc12` [Compound 5g, 2-Amino-4-((4-chlorophenyl)amino)-9H-pyrimido[4,5-b]indol-6-ol] here?
Its value is “not active”.

And the Ki [8]?
Its Ki is 686 ± 82 nM.

Which Ki [6] does the source give for `Nc1nc(Nc2ccc(Br)cc2)c2c(n1)[nH]c1ccc(O)cc12` [Compound 5h, 2-Amino-4-((4-bromophenyl)amino)-9H-pyrimido[4,5-b]indol-6-ol] here?
Its Ki is 3230 ± 195 nM.

And the Ki [8]?
Its Ki is 475 ± 143 nM.

Which inhibition at 10 µM [1] does the source give for `COc1ccc(COc2ccc(Nc3nc(N)nc4[nH]c5ccc(O)cc5c34)cc2)cc1` [Compound 5i] here?
The inhibition at 10 µM was 29%.

And the inhibition at 10 µM [2]?
Its inhibition at 10 µM is 25%.

What about the inhibition at 10 µM [3] of the same molecule?
Its inhibition at 10 µM is 9%.

And the inhibition at 10 µM [4]?
The inhibition at 10 µM was 15%.

What about the inhibition at 10 µM [5] of the same molecule?
The inhibition at 10 µM was 1%.

And the Ki [6]?
The Ki was 72 ± 15 nM.

What about the inhibition at 10 µM [7] of the same molecule?
Its inhibition at 10 µM is 1 to 29%.

And the inhibition at 10 µM [9]?
Its inhibition at 10 µM is 15 to 25%.

And the Ki [8]?
The Ki was 413 ± 111 nM.

Which results are given for `COc1cccc(COc2ccc(Nc3nc(N)nc4[nH]c5ccc(O)cc5c34)cc2)c1` [Compound 5j]?
Ki [6]: 209 ± 15 nM; Ki [8]: 132 ± 99 nM

For `Nc1nc(Nc2ccc(OCc3cccc(F)c3)cc2)c2c(n1)[nH]c1ccc(O)cc12` [Compound 5k], which inhibition at 10 µM [1] is on record?
Its inhibition at 10 µM is 90%.

What about the inhibition at 10 µM [2] of the same molecule?
Its inhibition at 10 µM is 95%.

What about the inhibition at 10 µM [3] of the same molecule?
Its inhibition at 10 µM is 93%.

What about the inhibition at 10 µM [4] of the same molecule?
The inhibition at 10 µM was 90%.

What about the inhibition at 10 µM [5] of the same molecule?
Its inhibition at 10 µM is 96%.

What about the Ki [6] of the same molecule?
Its Ki is 81 ± 10 nM.

What about the Ki [8] of the same molecule?
Its Ki is 170 ± 85 nM.

With `COc1ccc(COc2ccc(Nc3nc(N)nc4[nH]c5ccc(O)cc5c34)cc2Cl)cc1` [Compound 5l, 2-Amino-4-((3-chloro-4-((4-methoxybenzyl)oxy)phenyl)amino)-9H-pyrimido[4,5-b]indol-6-ol] as the molecule, how does the Ki [6] read?
Its Ki is 213 ± 35 nM.

And the Ki [8]?
Its Ki is 103 ± 37 nM.

Which Ki [6] does the source give for `Oc1ccc2[nH]c3ncnc(Nc4ccc(OCc5cccc(F)c5)cc4)c3c2c1` [Compound 5m] here?
Its Ki is 3660 ± 210 nM.

What about the “decrease in the PDGFR-β affinity by a factor” value ([6]; compared to the 2-amino compound 5k) of the same molecule?
The value was “fifty”.

What about the Ki [8] of the same molecule?
Its Ki is 189 ± 27 nM.

For `C#Cc1cccc(Nc2ncnc3cc(OCCOC)c(OCCOC)cc23)c1` [erlotinib], which growth inhibition rate [10] is on record?
The growth inhibition rate was 40%.

What about the growth inhibition rate [11] of the same molecule?
The growth inhibition rate was 45%.

And the growth inhibition rate [12]?
Its growth inhibition rate is 20%.
